# Assay results published in patent publication US9421237B2, “Tripeptide boronic acid or boronic ester, preparative method and use thereof” (PEKING UNIVERSITY, priority 2009, dated 2016).
# Tests used:
# [1] = test system: HL-60 (promyelocytic leukemia cell strain); test: In vitro anti-tumor activity (IC50), standard MTT method; type: cell-based; conditions: Homo sapiens, 72 h, average of three determinations
# Method: (§1) HL-60, BXPC-3 and U266 were obtained from the American Type Culture Collection (Manassas, Va.), and BGC-823 (human gastric carcinoma cell strain) was obtained from China Pharmaceutical University.
# (§2) Test methods: HL-60 cells were cultured in IMDM medium containing 20% fetal bovine serum at 37° C. in 5% CO2; BGC-823 cells and BXPC-3 cells were cultured in RPMI1640 medium containing 10% fetal bovine serum at 37° C. in 5% CO2; U266 cells were cultured in RPMI1640 medium containing 15% fetal bovine serum at 37° C. in 5% CO2.
# (§3) The cell growth was measured by the standard MTT method. A dispersions (150 μL, containing 3000 cells) medium was added into each well of a 96-well plate and allowed to grow, after 24 h, ten kinds of medium (50 μL) containing different concentrations of drugs were added into the corresponding wells, and continued to incubate for 72 h. Then a solution containing 5 mg/ml MTT (20 μL) was added into each well and incubated for another 4 h at 37° C. The plate was then centrifugated at 1000 rpm at 4° C. for 5 min, and the medium in upper layer was carefully discarded. The precipitates were dissolved in 100 μL of DMSO, and absorbance was read with an Infinite M200 (Tecan, Austria) microplate reader at 540 nm.
# (§4) The result was expressed as IC50 value, which is the average value of three independent determinations.
# [2] = test system: BGC-823 (human gastric carcinoma cell strain); test: as above; type: cell-based; conditions: 72 h, average of three determinations
# Method: as §1, §2, §3, §4
# [3] = test system: U266 (multiple myeloma cell strain); test: as above; type: cell-based; conditions: Homo sapiens, U-266, 72 h, average of three determinations
# Method: as §1, §2, §3, §4
# [4] = test system: BXPC-3 (human pancreatic cancer cell strain); test: as above; type: cell-based; conditions: 72 h, average of three determinations
# Method: as §1, §2, §3, §4
# [5] = target: T1, 20S proteasome extracted from rat liver, chymotryptic-like (CT-L) activity (Rattus norvegicus, UniProt P18421+P28075); test: Proteasome inhibition, chymotryptic-like (CT-L) activity, fluorescent peptide Suc-leu-leu-Val-Tyr-AMC; type: biochemical; conditions: rat liver 20S proteasome, 37° C., 1 h
# T1 construct: 20S proteasome extracted from rat liver; from tissue; host or cells: rat liver
# Method: (§5) The activities of the proteasome were assayed using fluorescent peptides: Suc-leu-leu-Val-Tyr-AMC (Suc represents succinyl, and AMC represents 7-amino-4-methylcoumarin, purchased from SIGMA) for determining chymotryptic-like (CT-L) activity; Z-Ala-Arg-Arg-AMC (Z represents benzyloxycarbonyl, purchased from Calbiochem) for determining trypsin-like (TL) activity; and Z-leu-leu-Glu-βNA (βNA represents β-naphtylamide, purchased from SIGMA) for determining peptidyl-glutamyl-peptide-hydrolyzing (PGPH) enzyme activity.
# (§6) Method for the aforesaid activity assays is as follows: 1 μg of 20S proteasome extracted from rat liver was incubated with a 100 μL solution containing various concentrations of compounds, 50 μM fluorescent peptides and 20 mM Tris-HCl at 37° C. for 1 h, respectively. The fluorescence released from AMC and RNA reagents was measured by a spectrofluorimeter Fluostar OPTIMA and BMG Germany at excitation/emission wavelengths of 380/440 nm and 335/410 nm, respectively. 0.1% DMSO was used as a solvent control. Compared with the fluorescence of solvent control, an inhibition rate was calculated.
# [6] = test system: HL-60 human leukemia cell; test: Preliminary anti-tumor screening in vitro, MTT method; type: cell-based; set-up: key to Test results: +++: inhibition rates at three doses are greater than 50%; ++: inhibition rates at two doses are greater than 50%; +: inhibition rate at one dose is greater than 50%; conditions: HL-60, MTT; for Test results: number of doses with inhibition > 50%; for inhibition at 0.05 µM / inhibition at 0.5 µM / inhibition at 5 µM: Homo sapiens, read-out: Inhibition rate %
# Method: (§7) The test methods used in this test example is the routine method for anti-tumor activities test in pharmaceutical area, for example, referring to the following reference: (J. Immunol Method, 1983, 65, 55).
# (§8) Test models: A: MTT method (HL-60 human leukemia); B: SRB method (BGC-823 human gastric cancer); C: SRB method (Bel-7402 human hepatocarcinoma); D: SRB method (KB human nasopharyngeal carcinoma).
# (§9) The aforesaid tests were carried out with the compounds of Examples 1-26 in the present invention, test results are shown in Tables 2-5.
# [7] = target: T2, 20S proteasome extracted from rat liver, trypsin-like (TL) activity (Rattus norvegicus, UniProt P40112+Q9JHW0); test: Proteasome inhibition, trypsin-like (TL) activity, fluorescent peptide Z-Ala-Arg-Arg-AMC; type: biochemical; conditions: rat liver 20S proteasome, 37° C., 1 h; read-out: T-L (IC50)
# T2 construct: 20S proteasome extracted from rat liver; from tissue; host or cells: rat liver
# Method: as §5
# as §6, with “calculated. Said assays used anticancer drug bortezomib (leukemia drug), namely PS341 as compound for positive control.” for “calculated.”
# [8] = test system: KB human nasopharyngeal carcinoma cell; test: Preliminary anti-tumor screening in vitro, SRB method; type: cell-based; set-up: key to Test results: +++: inhibition rates at three doses are greater than 50%; ++: inhibition rates at two doses are greater than 50%; +: inhibition rate at one dose is greater than 50%; conditions: for inhibition at 0.05 µM / inhibition at 0.5 µM / inhibition at 5 µM: Homo sapiens, read-out: Inhibition rate %; for Test results: number of doses with inhibition > 50%
# Method: as §7, §8, §9
# [9] = test system: Bel-7402 human hepatocarcinoma cell; test: as above; type: cell-based; set-up: key to Test results: +++: inhibition rates at three doses are greater than 50%; ++: inhibition rates at two doses are greater than 50%; +: inhibition rate at one dose is greater than 50%; conditions: Bel-7402, SRB; for Test results: number of doses with inhibition > 50%; for inhibition at 0.05 µM / inhibition at 0.5 µM / inhibition at 5 µM: Homo sapiens, read-out: Inhibition rate %
# Method: as §7, §8, §9
# [10] = test system: BGC-823 human gastric cancer cell; test: as above; type: cell-based; set-up: key to Test results: +++: inhibition rates at three doses are greater than 50%; ++: inhibition rates at two doses are greater than 50%; +: inhibition rate at one dose is greater than 50%; conditions: BGC-823, SRB; for Test results: number of doses with inhibition > 50%; for inhibition at 0.05 µM / inhibition at 0.5 µM / inhibition at 5 µM: Homo sapiens, read-out: Inhibition rate %
# Method: as §7, §8, §9
# [11] = target: T3, 20S proteasome extracted from rat liver, peptidyl-glutamyl-peptide-hydrolyzing (PGPH) enzyme activity (Rattus norvegicus, UniProt P28073+Q9JHW0); test: Proteasome inhibition, PGPH activity, fluorescent peptide Z-leu-leu-Glu-βNA; type: biochemical; conditions: rat liver 20S proteasome, 37° C., 1 h
# T3 construct: 20S proteasome extracted from rat liver; from tissue; host or cells: rat liver
# Method: as §5
# as §6, with “calculated. Said assays used anticancer drug bortezomib (leukemia drug), namely PS341 as compound for positive control.” for “calculated.”
Structure (SMILES),IC50 [1] [nM],IC50 [2] [nM],IC50 [3] [nM],IC50 [4] [nM],IC50 [5] [nM],Test results [6],inhibition at 0.05 µM [6] [%],inhibition at 0.5 µM [6] [%],inhibition at 5 µM [6] [%],IC50 [7] [nM],inhibition at 0.05 µM [8] [%],inhibition at 0.5 µM [8] [%],inhibition at 5 µM [8] [%],Test results [8],Test results [9],inhibition at 0.05 µM [9] [%],inhibition at 0.5 µM [9] [%],inhibition at 5 µM [9] [%],Test results [10],inhibition at 0.05 µM [10] [%],other results
"CC(C)C[C@H](NC(=O)[C@H](Cc1ccccc1)NC(=O)[C@H](Cc1ccc2ccccc2c1)NC(=O)c1cnccn1)B(O)O [Compound 6b, N-pyrazineformyl-L-naphthylalanyl-L-phenylalanyl-L-leucine Boronic Acid]",10,2810,53,31.8,0.417 ± 0.07,++,3.58,87.3,88.9,> 20,23.3,91.5,96.6,++,+,22.9,56.1,91.6,+++,56.4,melting point: 134 to 135 °C; inhibition at 0.5 µM [10]: 93.7%; inhibition at 5 µM [10]: 96.7%; IC50 [11]: 4.43 ± 1.41 nM
"CC(C)C[C@H](NC(=O)[C@H](Cc1ccc(O)cc1)NC(=O)[C@H](Cc1ccccc1)NC(=O)c1cnccn1)B(O)O [Compound 6c, N-pyrazineformyl-L-phenylalanyl-L-tyrosyl-L-leucine Boronic Acid]",552,5140,250,445,0.395 ± 0.035,+,-16.1,-8.48,65,> 20,-13.6,-5.16,95.4,+,+,-2.64,-4.84,71.2,+,2.64,melting point: 298 to 300 °C; inhibition at 0.5 µM [10]: 25.1%; inhibition at 5 µM [10]: 97.7%; IC50 [11]: 4.01 ± 1.47 nM
"CC(C)C[C@H](NC(=O)[C@H](Cc1ccccc1)NC(=O)[C@H](Cc1ccc(O)cc1)NC(=O)c1cnccn1)B(O)O [Compound 6d, N-pyrazineformyl-L-tyrosyl-L-phenylalanyl-L-leucine Boronic Acid]",445,2460,66.2,257,0.263 ± 0.081,+,-21.1,-5.04,87.9,> 20,3.23,17.3,96.2,+,+,1.7,8.79,90,+,4.33,melting point: 219 to 221 °C; inhibition at 0.5 µM [10]: 46.7%; inhibition at 5 µM [10]: 97.5%; IC50 [11]: 2.5 ± 1.49 nM
"CC(C)C[C@H](NC(=O)[C@H](Cc1ccc2ccccc2c1)NC(=O)[C@H](Cc1ccc2ccccc2c1)NC(=O)c1cnccn1)B(O)O [Compound 6h, N-pyrazineformyl-L-naphthylalanyl-L-naphthylalanyl-L-leucine Boronic Acid]",19.6,2450,195,33.3,0.335 ± 0.078,++,13.6,85.7,88.3,> 20,14.2,91.8,97.4,++,+,6.61,49.8,94.8,++,44.9,melting point: 145 to 146 °C; inhibition at 0.5 µM [10]: 88.1%; inhibition at 5 µM [10]: 97.6%
"CC(C)C[C@H](NC(=O)[C@H](CC(C)C)NC(=O)[C@H](Cc1ccc2ccccc2c1)NC(=O)c1cnccn1)B(O)O [Compound 6m, N-pyrazineformyl-L-naphthylalanyl-L-leucyl-L-leucine Boronic Acid]",15,1720,120,43.5,0.22 ± 0.07,++,4.61,85.2,87.8,> 20,40.8,86.4,94.7,++,++,30.3,57.7,95.2,+++,60.3,inhibition at 0.5 µM [10]: 81.9%; inhibition at 5 µM [10]: 97%; IC50 [11]: 8.33 ± 2.49 nM
